Activity calls are given as the source filed them.
What was measured:
Prothrombin = Prothrombin (Homo sapiens, UniProt P00734); assay: Thrombin 1536 HTS Dose Response Confirmation. [Related pubchem assays: 1046 (Thrombin 1536 HTS; hits were confirmed in this assay)]; format: functional
[1] = P. falciparum Dd2 growth inhibitors, dose response, SYBR Green, dry powder samples, set 9 (AID 1159568); format: functional, cell-based
[2] = P. falciparum Dd2 growth inhibitors, dose response, SYBR Green, dry powder samples (AID 1159566); format: functional, cell-based;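 note: potency for growth inhibition with lower SYBR green DNA signal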
[3] = P. falciparum ATP4 D1247Y mutant growth inhibitors, dose response, NITD609-resistant line, SYBR Green, dry powder (AID 1159571); format: functional, cell-based;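 note: parasites synchronized at ring stage by sorbitol before testing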
[4] = P. falciparum Dd2 growth inhibitors, dose response, SYBR Green, cherry-picked samples (AID 1159567); format: functional, cell-based
[5] = P. falciparum 3D7-ScDHODH growth inhibitors, dose response, SYBR Green, dry powder samples (AID 1159570); format: functional, cell-based;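 note: parasite growth measured after 72 hours of compound exposure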
Protein RecA = biological target: T1, Protein RecA (Mycobacterium tuberculosis, UniProt P9WHJ3); assay: Fluorescence Cell-Free Homogeneous Dose Retest to Identify Inhibitors of RecA-Intein Splicing Activity. [Related pubchem assays (depositor defined):AID2097, AID2223, AID489010, AID492950]; format: functional
T1 sequence (P9WHJ3 whole entry): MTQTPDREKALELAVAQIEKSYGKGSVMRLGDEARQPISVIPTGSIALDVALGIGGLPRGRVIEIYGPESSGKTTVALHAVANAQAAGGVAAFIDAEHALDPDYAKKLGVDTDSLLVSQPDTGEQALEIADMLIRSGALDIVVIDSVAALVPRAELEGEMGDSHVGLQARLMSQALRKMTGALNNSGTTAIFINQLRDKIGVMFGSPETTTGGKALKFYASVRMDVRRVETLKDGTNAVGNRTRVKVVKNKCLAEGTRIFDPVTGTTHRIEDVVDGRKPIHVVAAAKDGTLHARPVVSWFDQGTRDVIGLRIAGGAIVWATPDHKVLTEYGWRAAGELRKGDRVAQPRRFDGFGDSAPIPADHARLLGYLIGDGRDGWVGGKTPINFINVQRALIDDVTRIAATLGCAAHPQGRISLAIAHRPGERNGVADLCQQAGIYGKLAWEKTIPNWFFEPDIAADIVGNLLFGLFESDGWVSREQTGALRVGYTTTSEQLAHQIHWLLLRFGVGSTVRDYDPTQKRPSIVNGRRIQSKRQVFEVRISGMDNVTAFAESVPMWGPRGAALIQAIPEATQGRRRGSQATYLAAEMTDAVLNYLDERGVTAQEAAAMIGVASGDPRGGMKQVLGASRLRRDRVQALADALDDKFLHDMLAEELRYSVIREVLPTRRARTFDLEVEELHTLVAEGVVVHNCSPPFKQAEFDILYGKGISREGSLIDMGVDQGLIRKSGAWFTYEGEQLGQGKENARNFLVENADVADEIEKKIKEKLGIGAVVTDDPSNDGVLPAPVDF

Vero = assay: host cell cytotoxicity of antiviral hits, dose response, cytotoxicity control for West Nile virus antiviral project, secondary assay (AID 1650); format: functional; conditions: Chlorocebus sabaeus
[6] = biological target: T2, Replicative DNA helicase DnaB (Mycobacterium tuberculosis, UniProt P9WMR3); assay: DnaB intein splicing inhibitors, dose response, biochemical, cell-free fluorescence (AID 449749); format: functional
T2 sequence (P9WMR3 whole entry): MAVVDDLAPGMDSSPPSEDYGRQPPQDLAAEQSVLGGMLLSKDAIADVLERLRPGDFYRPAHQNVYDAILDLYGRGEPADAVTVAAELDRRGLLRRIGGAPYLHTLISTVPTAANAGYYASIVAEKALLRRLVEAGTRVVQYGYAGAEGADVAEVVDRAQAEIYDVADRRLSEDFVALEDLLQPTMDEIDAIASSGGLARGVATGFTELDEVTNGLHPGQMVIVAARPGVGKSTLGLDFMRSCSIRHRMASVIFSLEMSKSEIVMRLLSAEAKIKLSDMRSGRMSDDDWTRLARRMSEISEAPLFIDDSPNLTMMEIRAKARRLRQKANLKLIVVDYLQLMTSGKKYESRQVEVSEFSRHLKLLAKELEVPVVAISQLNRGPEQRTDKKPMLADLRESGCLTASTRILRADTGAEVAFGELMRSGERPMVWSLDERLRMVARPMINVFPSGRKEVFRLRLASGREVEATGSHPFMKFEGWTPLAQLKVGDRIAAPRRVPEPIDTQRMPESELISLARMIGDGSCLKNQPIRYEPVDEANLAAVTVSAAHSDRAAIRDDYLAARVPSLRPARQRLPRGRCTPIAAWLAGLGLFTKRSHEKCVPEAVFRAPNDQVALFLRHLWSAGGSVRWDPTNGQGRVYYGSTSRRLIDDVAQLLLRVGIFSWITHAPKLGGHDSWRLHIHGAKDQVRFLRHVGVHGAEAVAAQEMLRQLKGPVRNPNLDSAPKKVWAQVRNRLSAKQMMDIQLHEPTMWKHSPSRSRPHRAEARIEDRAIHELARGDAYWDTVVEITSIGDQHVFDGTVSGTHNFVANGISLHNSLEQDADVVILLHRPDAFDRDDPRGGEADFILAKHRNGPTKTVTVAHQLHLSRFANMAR

Estrogen receptor beta [7] = biological target: T3, Estrogen receptor beta (Homo sapiens, UniProt Q92731);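 note: recombinant ER-beta bound to coactivator SRC1 peptide in presence of estradiol agonist; inhibitors block coactivator peptide binding and lower the FRET signal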
Estrogen receptor beta [8] = biological target: T3, Estrogen receptor beta; assay: ERβ–SRC-3 coactivator interaction inhibitors, confirmation, orthogonal assay, biochemical, ELISA, streptavidin-HRP readout (AID 1060)
[9] = biological target: Eukaryotic translation initiation factor 4E (Mus musculus, UniProt P63073); assay: eIF4E–eIF4G protein interaction inhibitors, dose response, biochemical, TR-FRET (AID 855); format: functional;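 note: potency for disrupting eIF4E binding to eIF4GI seen as loss of FRET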
[10] = A cytotoxicity screen of small molecule inhibitors of the PhoP region in Salmonella typhi identified in the primary screen. [Related pubchem assays: 1850, 1864, 1985 ]; format: functional
[11] = Luminescence Cell-Based Dose Retest to Confirm Inhibitors of Cancer Stem Cells. [Related pubchem assays (depositor defined):AID2717, AID2721]; format: functional; conditions: Homo sapiens
[12] = biological target: T4, Neuropeptide Y receptor type 1 (Homo sapiens, UniProt P25929); format: functional;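 note: HEK293 cells with a CNG channel challenged with NPY then isoproterenol; potency as antagonist that reverses NPY suppression of cAMP signal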
T4 sequence (P25929 whole entry): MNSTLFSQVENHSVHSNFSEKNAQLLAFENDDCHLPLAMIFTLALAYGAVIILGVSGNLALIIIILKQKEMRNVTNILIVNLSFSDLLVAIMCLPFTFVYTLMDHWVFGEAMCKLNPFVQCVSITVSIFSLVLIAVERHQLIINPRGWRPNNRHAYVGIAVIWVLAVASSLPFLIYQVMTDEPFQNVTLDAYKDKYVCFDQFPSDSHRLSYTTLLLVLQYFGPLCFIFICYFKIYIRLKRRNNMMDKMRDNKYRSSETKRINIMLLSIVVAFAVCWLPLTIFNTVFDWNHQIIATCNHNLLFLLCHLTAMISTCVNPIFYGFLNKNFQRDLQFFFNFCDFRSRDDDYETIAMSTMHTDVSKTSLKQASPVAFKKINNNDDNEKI

[13] = biological target: T5, Neuropeptide Y receptor type 2 (Homo sapiens, UniProt P49146); format: functional, cell-based;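 note: HEK293 cells expressing the receptor and a CNG channel; stimulus was NPY near EC95 followed by isoproterenol to raise cAMP; antagonist potency measured as restoring cAMP signal that NPY suppresses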
T5 sequence (P49146 whole entry): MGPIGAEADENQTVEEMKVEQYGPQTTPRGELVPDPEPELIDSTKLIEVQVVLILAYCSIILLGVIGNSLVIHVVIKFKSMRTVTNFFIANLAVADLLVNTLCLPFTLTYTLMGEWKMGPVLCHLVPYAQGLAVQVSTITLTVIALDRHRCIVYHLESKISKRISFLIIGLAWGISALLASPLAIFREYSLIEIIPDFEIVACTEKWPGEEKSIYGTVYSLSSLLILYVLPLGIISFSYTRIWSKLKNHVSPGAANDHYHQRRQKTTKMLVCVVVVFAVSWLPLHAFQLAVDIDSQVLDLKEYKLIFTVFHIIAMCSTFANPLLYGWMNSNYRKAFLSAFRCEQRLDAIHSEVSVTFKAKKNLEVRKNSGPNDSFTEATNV

[14] = biological target: T6, Heat shock factor protein 1 (Mus musculus, UniProt P38532); assay: inhibition of MG132-induced HSE-luciferase signal, confirmation, cell-based, NIH3T3, luminescence, dose retest (AID 2382); format: functional;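 note: NIH3T3 fibroblasts with HSF1-driven luciferase reporter stressed by proteasome inhibitor MG132; luminescence from HSF1-driven luciferase expression after 8 hours of MG132 stress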
T6 sequence (P38532 whole entry): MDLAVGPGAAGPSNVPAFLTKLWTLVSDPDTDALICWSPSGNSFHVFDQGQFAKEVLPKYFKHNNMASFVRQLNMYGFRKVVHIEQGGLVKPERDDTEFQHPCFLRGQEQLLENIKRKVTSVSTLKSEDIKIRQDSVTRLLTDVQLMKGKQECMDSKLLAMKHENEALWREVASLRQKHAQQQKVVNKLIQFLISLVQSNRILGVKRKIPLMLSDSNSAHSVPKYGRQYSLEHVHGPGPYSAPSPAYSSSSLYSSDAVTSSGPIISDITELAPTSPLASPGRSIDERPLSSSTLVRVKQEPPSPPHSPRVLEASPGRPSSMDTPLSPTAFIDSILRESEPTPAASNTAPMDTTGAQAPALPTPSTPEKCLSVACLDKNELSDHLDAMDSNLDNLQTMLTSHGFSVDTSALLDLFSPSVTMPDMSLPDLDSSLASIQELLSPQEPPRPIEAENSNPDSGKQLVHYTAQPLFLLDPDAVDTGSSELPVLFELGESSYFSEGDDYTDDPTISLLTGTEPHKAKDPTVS

Cytochrome P450 2C9 = Cytochrome P450 2C9 (Homo sapiens, UniProt P11712)
Genome polyprotein = Genome polyprotein (dengue virus type 2, UniProt P29990); assay: Dengue-2 NS5 methyltransferase inhibitors, primary screen, biochemical, confirmation dose response (AID 588689); format: functional
Fatty acid synthase [15] = biological target: T7, Fatty acid synthase (Homo sapiens, UniProt P49327); assay: FAS thioesterase domain inhibitors, dose response, biochemical, endpoint fluorescence intensity, uHTS hits (AID 624327); format: functional;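 note: fluorescence from hydrolysis of an O-methyl fluorescein acyl ester substrate by the enzyme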
Fatty acid synthase [16] = biological target: T7, Fatty acid synthase; assay: FAS thioesterase domain inhibitors, dose response, biochemical, kinetic fluorescence intensity (AID 624326); format: functional;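 note: rate of fluorescence rise from hydrolysis of a fluorogenic O-methyl fluorescein ester substrate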
Paired box protein Pax-8 = Paired box protein Pax-8 (Homo sapiens, UniProt Q06710); assay: inhibitors of PAX8-driven TPO luciferase reporter, dose response, RMG-I cells, cherry-pick (AID 687027); format: functional, cell-based;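 note: luciferase reporter driven by Pax8 target thyroperoxidase promoter measured by SteadyGlo luminescence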
[17] = NIH:OVCAR-3 ovarian cancer cell cytotoxicity, dose response, PAX8 inhibitor project, plate reader, dry powder samples (AID 743044); format: functional, cell-based

T3 sequence (Q92731 whole entry): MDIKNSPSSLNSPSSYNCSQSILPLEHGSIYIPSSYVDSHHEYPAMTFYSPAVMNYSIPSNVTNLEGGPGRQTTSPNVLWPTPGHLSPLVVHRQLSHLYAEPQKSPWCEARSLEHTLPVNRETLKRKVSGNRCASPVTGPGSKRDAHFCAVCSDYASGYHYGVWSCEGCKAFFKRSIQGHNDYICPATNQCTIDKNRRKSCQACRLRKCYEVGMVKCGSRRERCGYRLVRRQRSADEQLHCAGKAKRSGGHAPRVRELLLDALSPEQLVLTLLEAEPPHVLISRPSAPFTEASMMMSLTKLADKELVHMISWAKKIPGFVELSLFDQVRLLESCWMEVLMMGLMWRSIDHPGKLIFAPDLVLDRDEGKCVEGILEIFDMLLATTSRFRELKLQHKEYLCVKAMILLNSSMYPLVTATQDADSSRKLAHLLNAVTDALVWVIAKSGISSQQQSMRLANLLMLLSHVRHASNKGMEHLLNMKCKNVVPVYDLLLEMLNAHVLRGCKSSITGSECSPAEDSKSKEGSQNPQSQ
T7 sequence (P49327 whole entry, the tested form may be a part): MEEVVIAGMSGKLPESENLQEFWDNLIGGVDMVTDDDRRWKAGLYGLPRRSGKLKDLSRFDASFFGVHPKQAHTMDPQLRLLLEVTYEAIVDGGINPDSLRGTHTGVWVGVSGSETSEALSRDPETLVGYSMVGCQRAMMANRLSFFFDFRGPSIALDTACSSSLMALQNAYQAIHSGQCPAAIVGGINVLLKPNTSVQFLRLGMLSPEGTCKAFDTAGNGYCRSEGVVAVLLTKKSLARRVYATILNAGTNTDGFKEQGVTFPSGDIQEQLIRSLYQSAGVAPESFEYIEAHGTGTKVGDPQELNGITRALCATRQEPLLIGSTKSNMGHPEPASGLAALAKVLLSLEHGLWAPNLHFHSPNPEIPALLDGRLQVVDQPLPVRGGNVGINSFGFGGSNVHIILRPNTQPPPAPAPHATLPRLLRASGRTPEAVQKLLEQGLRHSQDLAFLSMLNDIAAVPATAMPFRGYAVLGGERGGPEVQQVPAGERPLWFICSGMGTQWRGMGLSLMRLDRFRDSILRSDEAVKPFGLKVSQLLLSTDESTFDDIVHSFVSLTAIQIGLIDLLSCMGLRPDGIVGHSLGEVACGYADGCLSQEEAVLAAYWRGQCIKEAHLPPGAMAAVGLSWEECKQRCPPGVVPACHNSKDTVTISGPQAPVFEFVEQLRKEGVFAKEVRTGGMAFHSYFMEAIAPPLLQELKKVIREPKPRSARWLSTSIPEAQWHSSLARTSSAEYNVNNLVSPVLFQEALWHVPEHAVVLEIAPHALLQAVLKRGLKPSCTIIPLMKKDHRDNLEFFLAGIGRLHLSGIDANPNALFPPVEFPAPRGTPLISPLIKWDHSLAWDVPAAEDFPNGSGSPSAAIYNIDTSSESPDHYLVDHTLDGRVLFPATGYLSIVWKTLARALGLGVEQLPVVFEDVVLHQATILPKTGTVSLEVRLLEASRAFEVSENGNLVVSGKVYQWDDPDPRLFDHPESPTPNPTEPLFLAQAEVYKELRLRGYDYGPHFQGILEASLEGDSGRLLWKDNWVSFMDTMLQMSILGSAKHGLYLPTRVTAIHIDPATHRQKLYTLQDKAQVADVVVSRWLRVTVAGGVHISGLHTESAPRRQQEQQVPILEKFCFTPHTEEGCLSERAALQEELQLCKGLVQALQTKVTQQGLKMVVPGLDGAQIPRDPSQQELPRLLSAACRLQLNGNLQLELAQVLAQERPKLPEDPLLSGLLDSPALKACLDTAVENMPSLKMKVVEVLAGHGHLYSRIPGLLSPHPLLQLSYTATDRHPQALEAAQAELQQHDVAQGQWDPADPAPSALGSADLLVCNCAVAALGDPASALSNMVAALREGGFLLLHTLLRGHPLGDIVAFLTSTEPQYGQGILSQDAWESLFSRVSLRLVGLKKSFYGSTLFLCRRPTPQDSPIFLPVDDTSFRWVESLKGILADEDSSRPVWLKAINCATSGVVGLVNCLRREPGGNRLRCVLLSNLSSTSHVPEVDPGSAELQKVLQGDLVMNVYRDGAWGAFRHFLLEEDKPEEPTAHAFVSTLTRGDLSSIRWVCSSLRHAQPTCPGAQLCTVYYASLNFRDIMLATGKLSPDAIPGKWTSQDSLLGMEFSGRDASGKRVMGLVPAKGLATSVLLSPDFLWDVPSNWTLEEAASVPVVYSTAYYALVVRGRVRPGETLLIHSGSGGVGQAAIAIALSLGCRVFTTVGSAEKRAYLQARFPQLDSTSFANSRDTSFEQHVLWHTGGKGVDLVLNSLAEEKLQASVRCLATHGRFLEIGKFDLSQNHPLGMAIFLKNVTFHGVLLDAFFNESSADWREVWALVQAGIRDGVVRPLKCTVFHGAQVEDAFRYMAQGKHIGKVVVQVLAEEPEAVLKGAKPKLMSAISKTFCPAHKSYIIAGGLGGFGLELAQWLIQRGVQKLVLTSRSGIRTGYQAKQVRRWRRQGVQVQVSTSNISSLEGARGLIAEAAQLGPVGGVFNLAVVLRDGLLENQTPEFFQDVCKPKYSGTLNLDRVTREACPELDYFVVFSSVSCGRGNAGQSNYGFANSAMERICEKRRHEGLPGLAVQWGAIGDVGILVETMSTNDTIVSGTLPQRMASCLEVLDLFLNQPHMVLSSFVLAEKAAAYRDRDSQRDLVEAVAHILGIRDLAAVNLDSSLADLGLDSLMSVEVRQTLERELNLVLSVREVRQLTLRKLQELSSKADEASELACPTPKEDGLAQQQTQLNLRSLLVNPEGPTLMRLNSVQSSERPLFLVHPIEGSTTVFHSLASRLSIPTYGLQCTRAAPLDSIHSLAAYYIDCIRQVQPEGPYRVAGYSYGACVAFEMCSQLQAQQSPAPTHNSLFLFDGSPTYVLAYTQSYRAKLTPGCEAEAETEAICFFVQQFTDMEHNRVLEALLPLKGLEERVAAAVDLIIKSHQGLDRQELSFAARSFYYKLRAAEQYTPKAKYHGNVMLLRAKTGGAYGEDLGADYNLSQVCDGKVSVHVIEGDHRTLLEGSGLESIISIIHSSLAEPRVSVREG
Chain of Genome polyprotein (P29990 2492-3391 limits assumed): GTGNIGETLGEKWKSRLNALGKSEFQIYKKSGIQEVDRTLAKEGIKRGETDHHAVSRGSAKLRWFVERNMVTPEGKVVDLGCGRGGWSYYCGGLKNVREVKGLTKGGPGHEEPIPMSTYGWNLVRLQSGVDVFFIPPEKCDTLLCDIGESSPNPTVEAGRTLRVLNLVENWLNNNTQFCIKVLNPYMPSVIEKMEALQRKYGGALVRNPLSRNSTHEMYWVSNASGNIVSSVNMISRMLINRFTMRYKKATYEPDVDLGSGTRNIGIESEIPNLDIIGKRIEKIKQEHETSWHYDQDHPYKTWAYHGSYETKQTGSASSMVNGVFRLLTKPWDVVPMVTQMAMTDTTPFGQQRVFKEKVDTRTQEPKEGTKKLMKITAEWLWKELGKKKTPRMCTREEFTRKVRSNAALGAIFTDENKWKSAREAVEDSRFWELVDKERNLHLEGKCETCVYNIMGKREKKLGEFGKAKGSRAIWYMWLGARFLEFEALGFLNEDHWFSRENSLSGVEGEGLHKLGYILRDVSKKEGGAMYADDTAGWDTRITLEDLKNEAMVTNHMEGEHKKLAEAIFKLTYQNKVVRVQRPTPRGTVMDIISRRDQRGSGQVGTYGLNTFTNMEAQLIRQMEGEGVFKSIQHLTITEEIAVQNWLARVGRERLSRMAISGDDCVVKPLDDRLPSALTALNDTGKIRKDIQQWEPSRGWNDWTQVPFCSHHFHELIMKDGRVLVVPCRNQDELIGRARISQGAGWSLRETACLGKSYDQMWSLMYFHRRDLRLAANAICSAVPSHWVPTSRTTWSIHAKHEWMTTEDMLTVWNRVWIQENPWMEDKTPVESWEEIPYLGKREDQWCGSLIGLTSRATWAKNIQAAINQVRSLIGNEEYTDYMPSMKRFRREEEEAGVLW
Chain of Cytochrome P450 2C9 (P11712 whole entry): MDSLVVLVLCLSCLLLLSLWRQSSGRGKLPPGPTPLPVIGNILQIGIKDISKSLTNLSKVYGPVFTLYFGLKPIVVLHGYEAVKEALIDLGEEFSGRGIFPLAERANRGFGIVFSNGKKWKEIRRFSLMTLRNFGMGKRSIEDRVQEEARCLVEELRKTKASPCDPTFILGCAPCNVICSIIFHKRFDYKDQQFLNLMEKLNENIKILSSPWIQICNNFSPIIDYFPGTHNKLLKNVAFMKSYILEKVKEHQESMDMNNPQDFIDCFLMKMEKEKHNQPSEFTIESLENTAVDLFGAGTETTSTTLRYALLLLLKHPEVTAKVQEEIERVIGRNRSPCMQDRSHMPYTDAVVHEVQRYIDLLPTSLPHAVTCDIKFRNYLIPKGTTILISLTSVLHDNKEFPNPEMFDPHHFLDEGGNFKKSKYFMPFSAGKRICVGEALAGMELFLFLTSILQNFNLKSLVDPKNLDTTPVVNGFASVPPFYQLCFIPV
Chain of Eukaryotic translation initiation factor 4E (P63073 whole entry): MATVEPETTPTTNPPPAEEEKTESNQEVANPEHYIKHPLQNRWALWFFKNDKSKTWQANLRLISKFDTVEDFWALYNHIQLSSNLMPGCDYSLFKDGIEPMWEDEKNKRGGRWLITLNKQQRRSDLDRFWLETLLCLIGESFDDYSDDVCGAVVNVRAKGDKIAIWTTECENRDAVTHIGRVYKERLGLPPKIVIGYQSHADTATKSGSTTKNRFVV
Chain of Paired box protein Pax-8 (Q06710 whole entry): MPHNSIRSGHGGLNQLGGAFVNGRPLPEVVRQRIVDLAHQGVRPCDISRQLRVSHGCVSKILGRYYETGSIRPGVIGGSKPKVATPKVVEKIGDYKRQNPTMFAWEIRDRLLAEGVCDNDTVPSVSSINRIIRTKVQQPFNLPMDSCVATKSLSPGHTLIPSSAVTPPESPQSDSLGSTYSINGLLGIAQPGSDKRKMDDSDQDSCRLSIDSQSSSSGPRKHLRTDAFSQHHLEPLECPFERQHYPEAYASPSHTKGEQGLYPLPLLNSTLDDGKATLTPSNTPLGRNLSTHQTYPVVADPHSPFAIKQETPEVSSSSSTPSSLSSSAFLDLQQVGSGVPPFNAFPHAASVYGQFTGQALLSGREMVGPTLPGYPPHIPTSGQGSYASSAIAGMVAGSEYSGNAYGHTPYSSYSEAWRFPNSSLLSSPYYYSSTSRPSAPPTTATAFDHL

With C=CCOc1ccc(C(=O)C2=C(O)C(=O)N(CCCOC)C2c2ccncc2)cc1 (stereo not given) the IC50 (Prothrombin) was > 50 µM (inconclusive).

For C/C=C/c1ccc([C@H]2[C@@H](CO)N(C(=O)Nc3ccccc3F)[C@H]2C#N)cc1, the AC50 [1] was 13.7 µM (active).

With O=C(O)c1ccccc1SCC(=O)N1CCOCC1 the IC50 (Prothrombin) was > 50 µM (not active).

For COc1cccc(S(=O)(=O)N(C)C[C@@H]2Oc3ncc(C#Cc4ccc(OC)c(OC)c4)cc3C(=O)N([C@H](C)CO)C[C@@H]2C)c1, the AC50 [2] was 0.276 µM (active), the AC50 [3] was 0.428 µM (active) and the AC50 [4] was 1.23 µM (active). For the same molecule, the AC50 [5] was 0.724 µM (active).

In the case of CCn1ncc(Br)c1C(=O)Nc1cc([N+](=O)[O-])ccc1C, the IC50 (Prothrombin) is reported as > 50 µM (not active).

For CC(=O)O[C@@H]1C[C@H]2C(C)(C)C(=O)C=C[C@]2(C)[C@H]2CC[C@@]3(C)[C@H](c4ccoc4)OC(=O)[C@H]4O[C@]43[C@@]21C [GEDUNIN], the EC50 (Protein RecA) was 16.1 µM (active), the CC50 (Vero) was 22.2 µM (active) and the AC50 [6] was 4.57 µM (active).

For Cc1ccc2c(Cl)cc(Cl)c(OCC(=O)NCc3ccco3)c2n1, the IC50 (Estrogen receptor beta [7]) was < 1.56 µM (active), the IC50 (Estrogen receptor beta [8]) was > 50 µM (not active) and the IC50 [9] was 12.5 µM (active).

For COc1ccc2nc(NC(=O)Nc3ccccc3)sc2c1 [FRENTIZOLE], the EC50 [10] was > 50 µM (active).

In the case of Cc1ccc(OCCCCN(C)Cc2ccccc2)c(Br)c1, the AC50 [11] is reported as 9.59 µM (active), the IC50 [12] is reported as 8.33 µM (active) and the IC50 [13] is reported as 12 µM (not active).

With COc1c(Br)cc2c(C)c(C(=O)N3CCOCC3)oc2c1Br the EC50 [10] was > 50 µM (active).

With O=C(C[C@@H]1CC[C@@H]2[C@H](COC[C@@H](O)CN2C(=O)c2ccncc2)O1)Nc1ccc(-c2ccccc2)cc1 the AC50 [1] was 15.3 µM (active).

For O=C1NC(Nc2nc3ccccc3s2)(C(F)(F)F)C(=O)N1C1CCCCC1 (stereo not given), the CC50 (Vero) was 3.44 µM (active).

With CCCCCCc1cc2cc(S(=O)(=O)c3ccc(F)c(Cl)c3)c(=O)oc2cc1O the EC50 [14] was 17.5 µM (active) and the CC50 (Vero) was 10.9 µM (active).

With Clc1ccc(C2=Nn3c(nnc3-c3[nH]nc4c3CCC4)SC2)cc1Cl the IC50 [12] was 9.8 µM (active) and the IC50 [13] was 8.69 µM (active).

For C1=C(N2CCOCC2)/C(=C/c2nc3ccccc3[nH]2)CC1, the IC50 (Estrogen receptor beta [7]) was 23.8 µM (active) and the IC50 (Estrogen receptor beta [8]) was > 109 µM (not active).

With Cc1ccc(/C=N/NC(=O)CSc2nc3ccccc3n2C)s1 the EC50 [10] was > 50 µM (active) and the AC50 (Cytochrome P450 2C9) was “inconclusive”.

In the case of CCc1ccc(S(=O)(=O)ON2C(=O)c3ccccc3C2=O)cc1, the IC50 (Prothrombin) is reported as 1.55 µM (active), the IC50 (Genome polyprotein) is reported as > 100 µM (active) and the IC50 (Fatty acid synthase [15]) is reported as 2.41 µM (active). The IC50 (Fatty acid synthase [16]) was 1.28 µM (active).

In the case of O=C(Nc1ccc(F)cc1)N[C@H]1CC[C@H](CCNC(=O)c2cc(Cl)cc(Cl)c2)O[C@H]1CO, the AC50 (Paired box protein Pax-8) is reported as 8.97 µM (active) and the AC50 [17] is reported as 33 µM (active).

In the case of CCOc1ccc2nc(NC(=O)CS(=O)(=O)c3ccc(C)cc3)sc2c1, the IC50 [12] is reported as > 12 µM (not active) and the IC50 [13] is reported as > 35 µM (not active).

For O=C(CSCc1c(Cl)cccc1Cl)Nc1ccccc1-c1ccccc1, the IC50 [12] was 5.69 µM (active) and the IC50 [13] was 6.07 µM (active).

With CCCNC(=O)N1[C@H](C#N)[C@@H](c2ccccc2C2=CCCCC2)[C@@H]1CO the AC50 [1] was 4.33 µM (active).

— ChEMBL document CHEMBL1201862, “PubChem BioAssay data set” (2004)
